Results on five compounds are retold here after the supplement of paper PMC10307832.

The test system of one test is HOP-62. Put plainly: relative viability (nuclei count vs DMSO), 5 days (fraction); higher = more cells survive. The note with it: first compound 2.53 µM. In a few lines: (§1)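 Relative viability was taken as the ratio of nuclei in treated wells to nuclei in vehicle wells. Lung cancer cell lines in 1536-well plates received compounds by pin tool one day after seeding, either one drug alone or a fixed anchor-drug dose plus five library-drug doses (not always all listed) in √10 steps. Nuclei were counted on 4× images after 5 days of treatment, and values are medians of duplicate plates.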
Take `CCCCCCCCCCCC1=C(O)C(=O)C=C(O)C1=O` [Embelin] + CS(=O)(=O)CCNCc1ccc(-c2ccc3ncnc(Nc4ccc(OCc5cccc(F)c5)c(Cl)c4)c3c2)o1 [Lapatinib] (partner 2 µM): the relative viability came to 1.1.

In turn, `CCCCCCCCCCCC1=C(O)C(=O)C=C(O)C1=O` [Embelin] + C[C@@H](Oc1cc(-c2cnn(C3CCNCC3)c2)cnc1N)c1c(Cl)ccc(F)c1Cl [Crizotinib] (partner 1 µM) displayed a relative viability of 0.857.

Still in this test, the particulars now being: first compound 8 µM.
Take `CCCCCCCCCCCC1=C(O)C(=O)C=C(O)C1=O` [Embelin] + O=C(CCCCCCC(=O)Nc1ccccc1)NO [Vorinostat] (partner 1 µM): the relative viability worked out at 0.527.

Consider `CCCCCCCCCCCC1=C(O)C(=O)C=C(O)C1=O` [Embelin] + C[C@]1(O)C[C@@H](c2nc(-c3ccc4ccc(-c5ccccc5)nc4c3)c3c(N)nccn32)C1 [Linsitinib] (partner 1 µM), for which the relative viability amounted to 0.96.

Turning to `CCCCCCCCCCCC1=C(O)C(=O)C=C(O)C1=O` [Embelin] + CC(C)C[C@H](NC(=O)[C@H](Cc1ccccc1)NC(=O)c1cnccn1)B(O)O [Bortezomib] (partner 0.002 µM), the relative viability was found to be 0.727.

In turn, `CCCCCCCCCCCC1=C(O)C(=O)C=C(O)C1=O` [Embelin] + CS(=O)(=O)CCNCc1ccc(-c2ccc3ncnc(Nc4ccc(OCc5cccc(F)c5)c(Cl)c4)c3c2)o1 [Lapatinib] (partner 2 µM) displayed a relative viability of 0.908.

The compound `CCCCCCCCCCCC1=C(O)C(=O)C=C(O)C1=O` [Embelin] + C[C@@H](Oc1cc(-c2cnn(C3CCNCC3)c2)cnc1N)c1c(Cl)ccc(F)c1Cl [Crizotinib] (partner 1 µM) registered a relative viability of 0.82.

For the next test, the system named is NCI-H1299. The description is as above. The note with it: first compound 0.08 µM. In a few lines: as §1
In turn, `CCCCCCCCCCCC1=C(O)C(=O)C=C(O)C1=O` [Embelin] + C[C@]1(O)C[C@@H](c2nc(-c3ccc4ccc(-c5ccccc5)nc4c3)c3c(N)nccn32)C1 [Linsitinib] (partner 1 µM) displayed a relative viability of 0.93.

Compound `CCCCCCCCCCCC1=C(O)C(=O)C=C(O)C1=O` [Embelin] + CC(C)C[C@H](NC(=O)[C@H](Cc1ccccc1)NC(=O)c1cnccn1)B(O)O [Bortezomib] (partner 0.002 µM) yielded a relative viability of 1.06.

In turn, `CCCCCCCCCCCC1=C(O)C(=O)C=C(O)C1=O` [Embelin] + CS(=O)(=O)CCNCc1ccc(-c2ccc3ncnc(Nc4ccc(OCc5cccc(F)c5)c(Cl)c4)c3c2)o1 [Lapatinib] (partner 2 µM) displayed a relative viability of 0.943.

Compound `CCCCCCCCCCCC1=C(O)C(=O)C=C(O)C1=O` [Embelin] + C[C@@H](Oc1cc(-c2cnn(C3CCNCC3)c2)cnc1N)c1c(Cl)ccc(F)c1Cl [Crizotinib] (partner 1 µM) registered a relative viability of 0.954.

The same test, now with this note: first compound 0.8 µM.
Compound `CCCCCCCCCCCC1=C(O)C(=O)C=C(O)C1=O` [Embelin] + C[C@]1(O)C[C@@H](c2nc(-c3ccc4ccc(-c5ccccc5)nc4c3)c3c(N)nccn32)C1 [Linsitinib] (partner 1 µM) showed a relative viability of 1.04.

As to `CCCCCCCCCCCC1=C(O)C(=O)C=C(O)C1=O` [Embelin] + CC(C)C[C@H](NC(=O)[C@H](Cc1ccccc1)NC(=O)c1cnccn1)B(O)O [Bortezomib] (partner 0.002 µM), the relative viability turned out to be 1.05.

Take `CCCCCCCCCCCC1=C(O)C(=O)C=C(O)C1=O` [Embelin] + CS(=O)(=O)CCNCc1ccc(-c2ccc3ncnc(Nc4ccc(OCc5cccc(F)c5)c(Cl)c4)c3c2)o1 [Lapatinib] (partner 2 µM): the relative viability turned out to be 0.971.

Regarding `CCCCCCCCCCCC1=C(O)C(=O)C=C(O)C1=O` [Embelin] + C[C@@H](Oc1cc(-c2cnn(C3CCNCC3)c2)cnc1N)c1c(Cl)ccc(F)c1Cl [Crizotinib] (partner 1 µM), the relative viability amounted to 1.02.

The test is the same for the next values; noted with them: first compound 2.53 µM.
Take `CCCCCCCCCCCC1=C(O)C(=O)C=C(O)C1=O` [Embelin] + C[C@]1(O)C[C@@H](c2nc(-c3ccc4ccc(-c5ccccc5)nc4c3)c3c(N)nccn32)C1 [Linsitinib] (partner 1 µM): the relative viability is 1.06.

`CCCCCCCCCCCC1=C(O)C(=O)C=C(O)C1=O` [Embelin] + CC(C)C[C@H](NC(=O)[C@H](Cc1ccccc1)NC(=O)c1cnccn1)B(O)O [Bortezomib] (partner 0.002 µM) yielded a relative viability of 1.07.

`CCCCCCCCCCCC1=C(O)C(=O)C=C(O)C1=O` [Embelin] + CS(=O)(=O)CCNCc1ccc(-c2ccc3ncnc(Nc4ccc(OCc5cccc(F)c5)c(Cl)c4)c3c2)o1 [Lapatinib] (partner 2 µM) showed a relative viability of 0.991.

Compound `CCCCCCCCCCCC1=C(O)C(=O)C=C(O)C1=O` [Embelin] + C[C@@H](Oc1cc(-c2cnn(C3CCNCC3)c2)cnc1N)c1c(Cl)ccc(F)c1Cl [Crizotinib] (partner 1 µM) displayed a relative viability of 0.963.

Staying with this test, now noted: first compound 8 µM.
For `CCCCCCCCCCCC1=C(O)C(=O)C=C(O)C1=O` [Embelin] + C[C@]1(O)C[C@@H](c2nc(-c3ccc4ccc(-c5ccccc5)nc4c3)c3c(N)nccn32)C1 [Linsitinib] (partner 1 µM), the relative viability was 0.938.

Turning to `CCCCCCCCCCCC1=C(O)C(=O)C=C(O)C1=O` [Embelin] + CC(C)C[C@H](NC(=O)[C@H](Cc1ccccc1)NC(=O)c1cnccn1)B(O)O [Bortezomib] (partner 0.002 µM), the relative viability is 1.03.

Consider `CCCCCCCCCCCC1=C(O)C(=O)C=C(O)C1=O` [Embelin] + CS(=O)(=O)CCNCc1ccc(-c2ccc3ncnc(Nc4ccc(OCc5cccc(F)c5)c(Cl)c4)c3c2)o1 [Lapatinib] (partner 2 µM), for which the relative viability turned out to be 0.967.

For `CCCCCCCCCCCC1=C(O)C(=O)C=C(O)C1=O` [Embelin] + C[C@@H](Oc1cc(-c2cnn(C3CCNCC3)c2)cnc1N)c1c(Cl)ccc(F)c1Cl [Crizotinib] (partner 1 µM), the relative viability came out at 0.94.

A further test has as its system SW 900. The test is described as above. The note with it: first compound 0.08 µM. The essentials:
as §1
Regarding `CCCCCCCCCCCC1=C(O)C(=O)C=C(O)C1=O` [Embelin] + O=C(CCCCCCC(=O)Nc1ccccc1)NO [Vorinostat] (partner 1 µM), the relative viability is 0.604.

The test is the same for the next values; noted with them: first compound 0.8 µM.
As for `CCCCCCCCCCCC1=C(O)C(=O)C=C(O)C1=O` [Embelin] + O=C(CCCCCCC(=O)Nc1ccccc1)NO [Vorinostat] (partner 1 µM), the relative viability is 0.718.

Staying with this test, now noted: first compound 2.53 µM.
`CCCCCCCCCCCC1=C(O)C(=O)C=C(O)C1=O` [Embelin] + O=C(CCCCCCC(=O)Nc1ccccc1)NO [Vorinostat] (partner 1 µM) returned a relative viability of 0.538.

The same test, now with this note: first compound 8 µM.
In the case of `CCCCCCCCCCCC1=C(O)C(=O)C=C(O)C1=O` [Embelin] + O=C(CCCCCCC(=O)Nc1ccccc1)NO [Vorinostat] (partner 1 µM), the relative viability came to 0.315.

The test system of another test is NCI-H2087. The test is described as above. The note with it: first compound 0.08 µM. The essentials:
as §1
Regarding `CCCCCCCCCCCC1=C(O)C(=O)C=C(O)C1=O` [Embelin] + O=C(CCCCCCC(=O)Nc1ccccc1)NO [Vorinostat] (partner 1 µM), the relative viability turned out to be 0.659.

Compound `CCCCCCCCCCCC1=C(O)C(=O)C=C(O)C1=O` [Embelin] + C[C@]1(O)C[C@@H](c2nc(-c3ccc4ccc(-c5ccccc5)nc4c3)c3c(N)nccn32)C1 [Linsitinib] (partner 1 µM) yielded a relative viability of 0.998.
